# Assays:
# Type in all cases: cell-based
# AGS = test: 72-h MTT cytotoxicity assay AGS; settings: Homo sapiens, Table 5, Gastric adenocarcinoma
# Experimental: (§1) MTT cytotoxicity assay. […] Standard 72-h MTT (thiazolyl blue; 3-[4,5-dimethylthiazol-2-yl]-2,5-diphenyltetrazolium bromide) assays were performed (Haselsberger, K.; Peterson, D. C.; Thomas, D. G.; Darling, J. L. Anti Cancer Drugs 1996, 7, 331-8; Loveland, B. E.; Johns, T. G.; Mackay, I. R.; Vaillant, F.; Wang, Z. X.; Hertzog, P. J. Biochemistry International 1992, 27, 501-10). In short: cells were seeded into 96-well plates according to doubling time and incubated overnight at 37° C. Test compounds were made up in DMSO and a 1/3 dilution series prepared in 100 μL cell media, added to cells (in triplicates) and incubated for 72 ho at 37° C. MTT was made up as a stock of 5 mg/mL in cell media and filter-sterilised. Media was removed from cells followed by a wash with 200 μL PBS.
# (§2) MTT solution was then added at 20 μL per well and incubated in the dark at 37° C. for 4 h. MTT solution was removed and cells again washed with 200 μL PBS. MTT dye was solubilised with 200 μL per well of DMSO with agitation.
# HL60 = test: 72-h MTT cytotoxicity assay HL60; settings: Homo sapiens, HL-60, 72 h; Table 5; Promyelocytic leukaemia
# Experimental: as §1, §2
# nci-H460 = test: 72-h MTT cytotoxicity assay nci-H460; settings: Homo sapiens, NCI-H460, 72 h; Table 5; Lung
# Experimental: as §1, §2
# SK-N-MC = test: 72-h MTT cytotoxicity assay SK-N-MC; settings: Homo sapiens, Table 5, Neuroblastoma
# Experimental: as §1, §2
# DU-145 = test: 72-h MTT cytotoxicity assay DU-145; settings: Homo sapiens, DU-145, 72 h; Table 5; Prostate
# Experimental: as §1, §2
# Hs27 = test: 72-h MTT cytotoxicity assay Hs27; settings: Homo sapiens, HS27, 72 h; Table 5; Foreskin fibroblast (non-transformed)
# Experimental: as §1, §2
# WI38 = test: 72-h MTT cytotoxicity assay WI38; settings: Homo sapiens, WI-38, 72 h; Table 5; Foetal lung fibroblast (non-transformed)
# Experimental: as §1, §2
# [1] = test system: HIV-1 (clinical paediatric strain RoJo or WeJo) in human PBMCs; test: Anti-HIV efficacy evaluation in fresh human PBMCs; settings: for IC50 / IC90: Human immunodeficiency virus 1, PBMC, 168 h, seven days following infection; for IC50: concentration inhibiting virus replication by 50%; for IC90: concentration inhibiting virus replication by 90%
# Experimental: Representative compounds of the present invention were tested for antiviral activity against HIV-1 in human peripheral blood mononuclear cells (PBMCs) using the clinical paediatric HIV strain RoJo or WeJo. PBMCs were cultured under conditions which promote cell survival and HIV replication. Antiviral activity was tested for from 6-9 log10 serial dilutions of a 100 μM compound stock solution in DMSO.
# Fresh PBMCs, seronegative for HIV and HBV, were isolated from screened donors (Interstate Blood Bank, Inc. Memphis, Term.). Cells were pelleted/washed 2-3 times by low speed centrifugation and re-suspension in PBS to remove contaminating platelets. […] Banded PBMCs were gently aspirated from the resulting interface and subsequently washed with PBS by low speed centrifugation. After the final wash, cells were enumerated by trypan blue exclusion and re-suspended in RPMI 1640 supplemented with fetal bovine serum (FBS), and L-glutamine, Phytohemagglutinin (PHA-P, Sigma). The cells were allowed to incubate at 37° C. After incubation, PBMCs were centrifuged and resuspended in RPMI 1640 with FBS, L-glutamine, penicillin, streptomycin, gentamycin, and recombinant human IL-2 (R&D Systems, Inc). IL-2 is included in the culture medium to maintain the cell division initiated by the PHA mitogenic stimulation. PBMCs were maintained in this with bi-weekly medium changes until used in the assay protocol. Cells were kept in culture for a maximum of two weeks before being deemed too old for use in assays and discarded. Monocytes were depleted from the culture as the result of adherence to the tissue culture flask.
# For the standard PBMC assay, PHA-P stimulated cells from at least two normal donors were pooled, diluted and plated in the interior wells of a 96-well round bottom microplate. Pooling of mononuclear cells from more than one donor was used to minimise the variability observed between individual donors, which results from quantitative and qualitative differences in HIV infection and overall response to the PHA and IL-2 of primary lymphocyte populations. Each plate contained virus/cell control wells (cells plus virus), experimental wells (drug plus cells plus virus) and compound control wells (drug plus media […], necessary for MTS monitoring of cytotoxicity). Since HIV-1 is not cytopathic to PBMCs, this allows the use of the same assay plate for both antiviral activity and cytotoxicity measurements. Test drug dilutions were prepared in microtiter tubes and each concentration was placed in appropriate wells using the standard format. A predetermined dilution of virus stock was placed in each test well (final MOI≅0.1). The PBMC cultures were maintained for seven days following infection at 37° C., 5% CO2. After this period, cell-free supernatant samples were collected for analysis of reverse transcriptase activity and/or HIV p24 content. Following removal of supernatant samples, compound cytotoxicity was measured by addition of MTS to the plates for determination of cell viability. Wells were also examined microscopically and any abnormalities were noted.
# Reverse transcriptase activity assay: A microtiter plate-based reverse transcriptase (RT) reaction was utilised (Buckheit et al., AIDS Research and Human Retroviruses 7:295-302, 1991). Tritiated thymidine triphosphate (^3H-TTP, 80 Ci/mmol, NEN) was received in 1:1 dH2O:Ethanol at 1 mCi/mL. Poly rA:oligo dT template:primer (Pharmacia) was prepared as a stock solution, followed by aliquoting and storage at −20° C. The RT reaction buffer was prepared fresh on a daily basis. The final reaction mixture was prepared by combining ^3H-TTP, dH2O, poly rA:oligo dT stock and reaction buffer. This reaction mixture was placed in a round bottom microtiter plate and supernatant containing virus was added and mixed. The plate was incubated at 37° C. for 60 minutes. Following incubation, the reaction volume was spotted onto DE81 filter-mats (Wallac), in a sodium phosphate buffer or 2×SSC (Life Technologies). […]
Compound,IC50 (AGS),IC50 (HL60),IC50 (nci-H460),IC50 (SK-N-MC),IC50 (DU-145),IC50 (Hs27),IC50 (WI38),anti-viral effect in cell based assays [1],IC50 [1],IC90 [1]
"Cc1nc(N)sc1-c1ccnc(Nc2ccc(N3CCOCC3)cc2)n1 [Compound 1, [4-(2-Amino-4-methyl-thiazol-5-yl)-pyrimidin-2-yl]-(4-morpholin-4-yl-phenyl)-amine]",1100 nM,1800 nM,200 nM,300 nM,1500 nM,> 5000 nM,> 5000 nM,particularly effective anti-viral agent,1330 nM,2640 nM
"CNc1nc(C)c(-c2ccnc(Nc3ccc(N4CCOCC4)cc3)n2)s1 [Compound 3, [4-(2-N-Methylamino-4-methyl-thiazol-5-yl)-pyrimidin-2-yl]-(4-morpholinophenyl)-amine]",,,,,,,,,297 nM,679 nM
"CCNc1nc(C)c(-c2ccnc(Nc3ccc(N4CCOCC4)cc3)n2)s1 [Compound 4, [4-(2-Ethylamino-4-methyl-thiazol-5-yl)-pyrimidin-2-yl]-(4-morpholin-4-yl-phenyl)-amine]",,,,,,,,,166 nM,295 nM
"CNc1nc(C)c(-c2ccnc(Nc3ccc(N4CCN(Cc5ccccc5)CC4)cc3)n2)s1 [Compound 11, [4-(4-Benzyl-piperazin-1-yl)-phenyl]-[4-(4-methyl-2-methylamino-thiazol-5-yl)-pyrimidin-2-yl]-amine]",1300 nM,1700 nM,700 nM,600 nM,1000 nM,19000 nM,22000 nM,,,
"Cc1nc(NC(=O)[C@H](N)[C@@H](C)O)sc1-c1ccnc(Nc2cccc([N+](=O)[O-])c2)n1 [Compound 15, (2R,3R)-2-Amino-3-hydroxy-N-{4-methyl-5-[2-(3-nitro-phenylamino)-pyrimidin-4-yl]-thiazol-2-yl}-butyramide]",1100 nM,2200 nM,1200 nM,500 nM,1300 nM,1700 nM,> 5000 nM,,124 nM,385 nM
"CC[C@@H](N)C(=O)Nc1nc(C)c(-c2ccnc(Nc3cccc([N+](=O)[O-])c3)n2)s1 [Compound 16, (2R)-2-Amino-N-{4-methyl-5-[2-(3-nitro-phenylamino)-pyrimidin-4-yl]-thiazol-2-yl}-butyramide]",300 nM,600 nM,300 nM,400 nM,600 nM,> 5000 nM,1400 nM,,,
"Cc1nc(C)c(-c2ccnc(Nc3ccc(NC(=O)CN4CCCC4)cc3)n2)s1 [Compound 53, N-{4-[4-(2,4-Dimethyl-thiazol-5-yl)-pyrimidin-2-ylamino]-phenyl}-2-pyrrolidin-1-yl-acetamide]",,,,,,,,,812 nM,871 nM

# — patent US7432260B2, “Pyrimidine compounds” (Cyclacel Limted, priority 2002, dated 2008)
